Test results as given in PubChem BioAssay AID248 (DTP/NCI, 2004).
Several values for one entry are separate records, joined by “and”; a condition that tells them apart may be missing. Identical values can stand only once. Toxic doses and inconclusive results are not listed.

Test system: L1210 leukemia ip in BDF1 mice, survival T/C
Assay: NCI In Vivo Anticancer Drug Screen. Data for tumor model L1210 Leukemia (intraperitoneal) in B6D2F1 (BDF1) mice
Details: higher = longer survival
How it was run: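 Antitumor effect is assessed in tumor-bearing animals. Survival in the compound arm is compared with a vehicle-dosed control arm and expressed as their quotient.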

[1] = endpoint: mean survival time, dose: 50.0 mg/kg/injection, schedule: Q01DX009 (ip), vehicle: Klucel (hydroxypropylcellulose) (HPC)
[2] = endpoint: mean survival time, dose: 100.0 mg/kg/injection, schedule: Q01DX009 (ip), vehicle: Klucel (hydroxypropylcellulose) (HPC)
[3] = endpoint: mean survival time, dose: 200.0 mg/kg/injection, schedule: Q01DX009 (ip), vehicle: Klucel (hydroxypropylcellulose) (HPC)
[4] = endpoint: mean survival time, dose: 100.0 mg/kg/injection, schedule: Q01DX001 (ip), vehicle: carboxymethylcellulose (CMC)
[5] = endpoint: mean survival time, dose: 200.0 mg/kg/injection, schedule: Q01DX001 (ip), vehicle: carboxymethylcellulose (CMC)
[6] = endpoint: mean survival time, dose: 400.0 mg/kg/injection, schedule: Q01DX001 (ip), vehicle: carboxymethylcellulose (CMC)

With `O=C1OC2(c3ccc(O)cc3Oc3cc(O)ccc32)C2C3C=CC(C3)C12` (stereo unspecified) the T/C [1] was 98 % of control, the T/C [2] was 104 % of control and the T/C (endpoint: mean survival time, dose: 100.0 mg/kg/injection, schedule: Q04DX003 (ip), vehicle: saline) was 98 % of control. For the same compound, the T/C [3] was 97 % of control, the T/C (endpoint: mean survival time, dose: 200.0 mg/kg/injection, schedule: Q04DX003 (ip), vehicle: saline) was 92 % of control and the T/C (endpoint: mean survival time, dose: 400.0 mg/kg/injection, schedule: Q04DX003 (ip), vehicle: saline) was 95 % of control.

For `CCCC(=O)NNC(=O)CCC`, the T/C (endpoint: mean survival time, dose: 100.0 mg/kg/injection, schedule: Q04DX003 (ip), vehicle: gum acacia) was 106 % of control, the T/C (endpoint: mean survival time, dose: 200.0 mg/kg/injection, schedule: Q04DX003 (ip), vehicle: gum acacia) was 107 % of control and the T/C (endpoint: mean survival time, dose: 400.0 mg/kg/injection, schedule: Q04DX003 (ip), vehicle: gum acacia) was 120 % of control.

In the case of `Cc1ccc(C)c(NC(=O)Oc2ccc(C(=O)OCc3ccccc3)cc2)c1`, the T/C (endpoint: mean survival time, dose: 25.0 mg/kg/injection, schedule: Q01DX009 (ip), vehicle: Klucel (hydroxypropylcellulose) (HPC)) is reported as 100 % of control, the T/C [1] is reported as 88 % of control and the T/C [2] is reported as 93 % of control and 104 % of control. For the same compound, the T/C (endpoint: mean survival time, dose: 100.0 mg/kg/injection, schedule: Q04DX003 (ip), vehicle: Klucel (hydroxypropylcellulose) (HPC)) was 107 % of control, the T/C [3] was 95 % of control and the T/C (endpoint: mean survival time, dose: 200.0 mg/kg/injection, schedule: Q04DX003 (ip), vehicle: Klucel (hydroxypropylcellulose) (HPC)) was 98 % of control. The T/C (endpoint: mean survival time, dose: 400.0 mg/kg/injection, schedule: Q04DX003 (ip), vehicle: Klucel (hydroxypropylcellulose) (HPC)) was 101 % of control.

`Cc1ccc(C(=O)C(=O)c2ccccc2)c(C)c1` was tested, and the T/C (endpoint: mean survival time, dose: 100.0 mg/kg/injection, schedule: Q01DX001 (ip), vehicle: saline) was 107 % of control, the T/C (endpoint: mean survival time, dose: 200.0 mg/kg/injection, schedule: Q01DX001 (ip), vehicle: saline) was 102 % of control and the T/C (endpoint: mean survival time, dose: 400.0 mg/kg/injection, schedule: Q01DX001 (ip), vehicle: saline) was 96 % of control.

`CCC(=O)c1ccc2c(c1)N(CCCN(C)C)c1ccccc1S2` was tested, and the T/C (endpoint: mean survival time, dose: 6.25 mg/kg/injection, schedule: Q01DX009 (ip), vehicle: saline with Tween-80) was 98 % of control, the T/C (endpoint: mean survival time, dose: 12.5 mg/kg/injection, schedule: Q01DX009 (ip), vehicle: saline with Tween-80) was 96 % of control and the T/C (endpoint: mean survival time, dose: 25.0 mg/kg/injection, schedule: Q01DX009 (ip), vehicle: saline with Tween-80) was 115 % of control. For the same compound, the T/C (endpoint: mean survival time, dose: 50.0 mg/kg/injection, schedule: Q01DX009 (ip), vehicle: saline with Tween-80) was 107 % of control.

With `CC(C(=O)c1ccccc1)C(c1ccccc1)N1CCOCC1` (stereo unspecified) the T/C (endpoint: mean survival time, dose: 100.0 mg/kg/injection, schedule: Q04DX003 (ip), vehicle: saline with Tween-80) was 106 % of control, the T/C (endpoint: mean survival time, dose: 200.0 mg/kg/injection, schedule: Q04DX003 (ip), vehicle: saline with Tween-80) was 101 % of control and the T/C (endpoint: mean survival time, dose: 400.0 mg/kg/injection, schedule: Q04DX003 (ip), vehicle: saline with Tween-80) was 100 % of control.

`O=C1c2ccccc2C(=O)c2c(NCCNCCO)ccc(NCCNCCO)c21` was tested, and the T/C (endpoint: mean survival time, dose: 2.0 mg/kg/injection, schedule: Q01DX009 (ip), vehicle: Klucel (hydroxypropylcellulose) (HPC)) was 204 % of control, the T/C (endpoint: mean survival time, dose: 2.0 mg/kg/injection, schedule: Q01DX009 (ip), vehicle: saline with Tween-80) was 162 % of control and the T/C (endpoint: mean survival time, dose: 2.0 mg/kg/injection, schedule: Q01DX009 (ip), vehicle: water) was 196 % of control. For the same compound, the T/C (endpoint: mean survival time, dose: 4.0 mg/kg/injection, schedule: Q01DX009 (ip), vehicle: Klucel (hydroxypropylcellulose) (HPC)) was 306 % of control, the T/C (endpoint: mean survival time, dose: 4.0 mg/kg/injection, schedule: Q01DX009 (ip), vehicle: saline with Tween-80) was 153 % of control and the T/C (endpoint: mean survival time, dose: 4.0 mg/kg/injection, schedule: Q01DX009 (ip), vehicle: water) was 159 % of control. For the same compound, the T/C (endpoint: mean survival time, dose: 8.0 mg/kg/injection, schedule: Q01DX009 (ip), vehicle: Klucel (hydroxypropylcellulose) (HPC)) was 491 % of control, the T/C (endpoint: mean survival time, dose: 8.0 mg/kg/injection, schedule: Q01DX009 (ip), vehicle: saline with Tween-80) was 220 % of control and the T/C (endpoint: mean survival time, dose: 8.0 mg/kg/injection, schedule: Q01DX009 (ip), vehicle: water) was 498 % of control. For the same compound, the T/C (endpoint: mean survival time, dose: 16.0 mg/kg/injection, schedule: Q01DX009 (ip), vehicle: Klucel (hydroxypropylcellulose) (HPC)) was 347 % of control, the T/C (endpoint: mean survival time, dose: 16.0 mg/kg/injection, schedule: Q01DX009 (ip), vehicle: saline with Tween-80) was 253 % of control and the T/C (endpoint: mean survival time, dose: 16.0 mg/kg/injection, schedule: Q01DX009 (ip), vehicle: water) was 396 % of control. For the same compound, the T/C (endpoint: mean survival time, dose: 32.0 mg/kg/injection, schedule: Q01DX009 (ip), vehicle: Klucel (hydroxypropylcellulose) (HPC)) was 118 % of control, the T/C (endpoint: mean survival time, dose: 32.0 mg/kg/injection, schedule: Q01DX009 (ip), vehicle: saline with Tween-80) was 89 % of control and the T/C (endpoint: mean survival time, dose: 32.0 mg/kg/injection, schedule: Q01DX009 (ip), vehicle: water) was 93 % of control. For the same compound, the T/C (endpoint: median survival time, dose: 8.0 mg/kg/injection, schedule: Q01DX005 (oral), vehicle: Klucel (hydroxypropylcellulose) (HPC)) was 90 % of control, the T/C (endpoint: median survival time, dose: 8.0 mg/kg/injection, schedule: Q01DX005 (oral), vehicle: water) was 101 % of control and the T/C (endpoint: median survival time, dose: 16.0 mg/kg/injection, schedule: Q01DX005 (oral), vehicle: Klucel (hydroxypropylcellulose) (HPC)) was 98 % of control. For the same compound, the T/C (endpoint: median survival time, dose: 16.0 mg/kg/injection, schedule: Q01DX005 (oral), vehicle: water) was 101 % of control, the T/C (endpoint: median survival time, dose: 32.0 mg/kg/injection, schedule: Q01DX005 (oral), vehicle: Klucel (hydroxypropylcellulose) (HPC)) was 94 % of control and the T/C (endpoint: median survival time, dose: 32.0 mg/kg/injection, schedule: Q01DX005 (oral), vehicle: water) was 101 % of control. The T/C (endpoint: median survival time, dose: 64.0 mg/kg/injection, schedule: Q01DX005 (oral), vehicle: Klucel (hydroxypropylcellulose) (HPC)) was 100 % of control, the T/C (endpoint: median survival time, dose: 64.0 mg/kg/injection, schedule: Q01DX005 (oral), vehicle: water) was 97 % of control and the T/C (endpoint: median survival time, dose: 128.0 mg/kg/injection, schedule: Q01DX005 (oral), vehicle: Klucel (hydroxypropylcellulose) (HPC)) was 94 % of control. For the same compound, the T/C (endpoint: median survival time, dose: 128.0 mg/kg/injection, schedule: Q01DX005 (oral), vehicle: water) was 100 % of control, the T/C (endpoint: median survival time, dose: 256.0 mg/kg/injection, schedule: Q01DX005 (oral), vehicle: Klucel (hydroxypropylcellulose) (HPC)) was 98 % of control and the T/C (endpoint: median survival time, dose: 256.0 mg/kg/injection, schedule: Q01DX005 (oral), vehicle: water) was 102 % of control. The T/C (endpoint: median survival time, dose: 512.0 mg/kg/injection, schedule: Q01DX005 (oral), vehicle: Klucel (hydroxypropylcellulose) (HPC)) was 103 % of control and the T/C (endpoint: median survival time, dose: 512.0 mg/kg/injection, schedule: Q01DX005 (oral), vehicle: water) was 106 % of control.

With `C(=C/P(c1ccccc1)c1ccccc1)/P(c1ccccc1)c1ccccc1` the T/C (endpoint: mean survival time, dose: 75.0 mg/kg/injection, schedule: Q01DX001 (ip), vehicle: saline) was 108 % of control, the T/C (endpoint: mean survival time, dose: 150.0 mg/kg/injection, schedule: Q01DX001 (ip), vehicle: saline) was 98 % of control and the T/C (endpoint: mean survival time, dose: 300.0 mg/kg/injection, schedule: Q01DX001 (ip), vehicle: saline) was 93 % of control.

`O=C(O)c1c(Br)c(Br)c(Br)c(Br)c1C(=O)O` was tested, and the T/C (endpoint: mean survival time, dose: 100.0 mg/kg/injection, schedule: Q04DX002 (ip), vehicle: saline) was 107 % of control, the T/C (endpoint: mean survival time, dose: 200.0 mg/kg/injection, schedule: Q04DX002 (ip), vehicle: saline) was 110 % of control and the T/C (endpoint: mean survival time, dose: 400.0 mg/kg/injection, schedule: Q04DX002 (ip), vehicle: saline) was 103 % of control.

`CCOP(=O)(OC(C)CC)OC(C)CC` (stereo unspecified) was tested, and the T/C (endpoint: mean survival time, dose: 100.0 mg/kg/injection, schedule: Q04DX003 (ip), vehicle: carboxymethylcellulose (CMC)) was 93 % of control and the T/C (endpoint: mean survival time, dose: 200.0 mg/kg/injection, schedule: Q04DX003 (ip), vehicle: carboxymethylcellulose (CMC)) was 87 % of control.

For `CCOC(=O)c1cn[nH]c1/N=N/N(C)C`, the T/C (endpoint: mean survival time, dose: 42.0 mg/kg/injection, schedule: Q01DX009 (ip), vehicle: carboxymethylcellulose (CMC)) was 113 % of control, the T/C (endpoint: mean survival time, dose: 178.0 mg/kg/injection, schedule: Q01DX001 (ip), vehicle: carboxymethylcellulose (CMC)) was 110 % of control and the T/C (endpoint: mean survival time, dose: 267.0 mg/kg/injection, schedule: Q01DX001 (ip), vehicle: carboxymethylcellulose (CMC)) was 112 % of control.

`C1=C(c2ccccc2)c2c(c3ccccc3c3ccccc23)C(c2ccccc2)=CC1` was tested, and the T/C (endpoint: mean survival time, dose: 50.0 mg/kg/injection, schedule: Q01DX001 (ip), vehicle: carboxymethylcellulose (CMC)) was 100 % of control, the T/C [4] was 100 % of control and the T/C [5] was 94 % of control. For the same compound, the T/C [6] was 94 % of control.

With `O=C(Nc1ccccc1)c1cccnc1` the T/C [4] was 94 % of control, the T/C [5] was 91 % of control and the T/C [6] was 96 % of control.

For `NC(=O)C(O)(c1ccccc1)c1ccccc1`, the T/C (endpoint: mean survival time, dose: 100.0 mg/kg/injection, schedule: Q01DX001 (ip), vehicle: saline with Tween-80) was 100 % of control, the T/C (endpoint: mean survival time, dose: 200.0 mg/kg/injection, schedule: Q01DX001 (ip), vehicle: saline with Tween-80) was 97 % of control and the T/C (endpoint: mean survival time, dose: 400.0 mg/kg/injection, schedule: Q01DX001 (ip), vehicle: saline with Tween-80) was 101 % of control.
